According to US20110319432A1 (priority 2009, published 2011):
Where two headings read alike, the source gives them in different places.

System: Phytophthora infestans
Format: cell-based
Conditions: MTP, absorption 405 nm, 7 days after inoculation, 18° C

SMILES | Observed efficacy (0.25 ppm) | Observed efficacy (0.016 ppm) | Observed efficacy (0.063 ppm)
CCCCCCCCc1c(CC)nc2ncnn2c1N [5-Ethyl-6-octyl-[1,2,4]triazolo[1,5-a]pyrimidin-7-ylamine] | 31% | – | –
O=C(NCCc1ncc(C(F)(F)F)cc1Cl)c1ccccc1C(F)(F)F [Fluopyram] | – | 5% | 5%
